In PubChem BioAssay (NCI):
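All cell lines were grown in 96-well plates and treated with compound for 48 hours. Here, GI50 denotes the concentration required for 50% inhibition of growth. TGI: total growth inhibition.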

What was measured:
Assay in all cases: inhibition of tumour cell growth, NCI panel, 48 h
A498 renal = test system: A498 renal
SK-MEL-2 melanoma = test system: SK-MEL-2 melanoma
SK-MEL-28 melanoma = test system: SK-MEL-28 melanoma
M14 melanoma = test system: M14 melanoma
LOX IMVI melanoma = test system: LOX IMVI melanoma
NCI-H522 lung = test system: NCI-H522 lung
MALME-3M melanoma = test system: MALME-3M melanoma
HL-60(TB) leukemia = test system: HL-60(TB) leukemia
BT-549 breast = test system: BT-549 breast
SR leukemia = test system: SR leukemia
A549 NSCLC = test system: A549 NSCLC
HOP-92 NSCLC = test system: HOP-92 NSCLC
OVCAR-8 ovarian = test system: OVCAR-8 ovarian
HS 578T breast = test system: HS 578T breast
SK-OV-3 ovarian = test system: SK-OV-3 ovarian
NCI-H460 lung = test system: NCI-H460 lung
HOP-62 NSCLC = test system: HOP-62 NSCLC
PC-3 prostate = test system: PC-3 prostate
UACC-62 melanoma = test system: UACC-62 melanoma
T-47D breast = test system: T-47D breast
OVCAR-5 ovarian = test system: OVCAR-5 ovarian
K-562 leukemia = test system: K-562 leukemia
RXF 393 renal = test system: RXF 393 renal
MDA-MB-435 = test system: MDA-MB-435
SNB-75 CNS = test system: SNB-75 CNS
HCT-15 colon = test system: HCT-15 colon
MOLT-4 leukemia = test system: MOLT-4 leukemia
786-0 renal = test system: 786-0 renal
OVCAR-4 ovarian = test system: OVCAR-4 ovarian
SF-539 CNS = test system: SF-539 CNS
SNB-19 CNS = test system: SNB-19 CNS
SK-MEL-5 melanoma = test system: SK-MEL-5 melanoma
NCI/ADR-RES ovarian = test system: NCI/ADR-RES ovarian
RPMI-8226 leukemia = test system: RPMI-8226 leukemia
IGROV1 ovarian = test system: IGROV1 ovarian
EKVX NSCLC = test system: EKVX NSCLC
MCF7 breast = test system: MCF7 breast
CAKI-1 renal = test system: CAKI-1 renal
HCT-116 colon = test system: HCT-116 colon
NCI-H23 lung = test system: NCI-H23 lung
NCI-H226 lung = test system: NCI-H226 lung
COLO 205 colon = test system: COLO 205 colon
OVCAR-3 ovarian = test system: OVCAR-3 ovarian
U251 CNS = test system: U251 CNS
SF-268 CNS = test system: SF-268 CNS
SF-295 CNS = test system: SF-295 CNS
UO-31 renal = test system: UO-31 renal
ACHN renal = test system: ACHN renal
UACC-257 melanoma = test system: UACC-257 melanoma
HT29 colon = test system: HT29 colon
HCC-2998 colon = test system: HCC-2998 colon
CCRF-CEM leukemia = test system: CCRF-CEM leukemia
SN12C renal = test system: SN12C renal
KM12 colon = test system: KM12 colon
SW-620 colon = test system: SW-620 colon
TK-10 renal = test system: TK-10 renal
MDA-MB-231 breast = test system: MDA-MB-231 breast
DU-145 prostate = test system: DU-145 prostate

O=C(Nc1ccc([As]=[As]c2ccc(NC(=O)c3ccccc3)cc2)cc1)c1ccccc1 (stereo unspecified)
GI50 (A498 renal): 1150 nM
TGI (A498 renal): 2360 nM
GI50 (SK-MEL-2 melanoma): 334 nM
TGI (SK-MEL-2 melanoma): 1010 nM
GI50 (SK-MEL-28 melanoma): 214 nM
TGI (SK-MEL-28 melanoma): 531 nM
GI50 (M14 melanoma): 1130 nM
TGI (M14 melanoma): 2490 nM
GI50 (LOX IMVI melanoma): 262 nM
TGI (LOX IMVI melanoma): 786 nM
GI50 (NCI-H522 lung): 74.3 nM
TGI (NCI-H522 lung): 217 nM
GI50 (MALME-3M melanoma): 184 nM
TGI (MALME-3M melanoma): 571 nM
GI50 (HL-60(TB) leukemia): 328 nM
TGI (HL-60(TB) leukemia): 2090 nM
GI50 (BT-549 breast): 343 nM
TGI (BT-549 breast): 1190 nM
GI50 (SR leukemia): 258 nM
TGI (SR leukemia): 751 nM
GI50 (A549 NSCLC): 1840 nM
TGI (A549 NSCLC): 3590 nM
GI50 (HOP-92 NSCLC): 179 nM
TGI (HOP-92 NSCLC): 642 nM
GI50 (OVCAR-8 ovarian): 333 nM
TGI (OVCAR-8 ovarian): 1220 nM
GI50 (HS 578T breast): 478 nM
TGI (HS 578T breast): 6320 nM
GI50 (SK-OV-3 ovarian): 1900 nM
TGI (SK-OV-3 ovarian): 3310 nM
GI50 (NCI-H460 lung): 2030 nM
TGI (NCI-H460 lung): 4510 nM
GI50 (HOP-62 NSCLC): 1240 nM
TGI (HOP-62 NSCLC): 2640 nM
GI50 (PC-3 prostate): 1180 nM
TGI (PC-3 prostate): 2460 nM
GI50 (UACC-62 melanoma): 313 nM
TGI (UACC-62 melanoma): 1280 nM
GI50 (T-47D breast): 173 nM
TGI (T-47D breast): 493 nM
GI50 (OVCAR-5 ovarian): 1170 nM
TGI (OVCAR-5 ovarian): 2530 nM
GI50 (K-562 leukemia): 215 nM
TGI (K-562 leukemia): 560 nM
GI50 (RXF 393 renal): 192 nM
TGI (RXF 393 renal): 499 nM
GI50 (MDA-MB-435): 734 nM
TGI (MDA-MB-435): 2110 nM
GI50 (SNB-75 CNS): 242 nM
TGI (SNB-75 CNS): 1510 nM
GI50 (HCT-15 colon): 302 nM
TGI (HCT-15 colon): 1360 nM
GI50 (MOLT-4 leukemia): 339 nM
TGI (MOLT-4 leukemia): 1840 nM
GI50 (786-0 renal): 454 nM
TGI (786-0 renal): 1670 nM
GI50 (OVCAR-4 ovarian): 466 nM
TGI (OVCAR-4 ovarian): 1810 nM
GI50 (SF-539 CNS): 381 nM
TGI (SF-539 CNS): 1530 nM
GI50 (SNB-19 CNS): 1470 nM
TGI (SNB-19 CNS): 2840 nM
GI50 (SK-MEL-5 melanoma): 846 nM
TGI (SK-MEL-5 melanoma): 2100 nM
GI50 (NCI/ADR-RES ovarian): 1320 nM
TGI (NCI/ADR-RES ovarian): 2650 nM
GI50 (RPMI-8226 leukemia): 247 nM
TGI (RPMI-8226 leukemia): 728 nM
GI50 (IGROV1 ovarian): 756 nM
TGI (IGROV1 ovarian): 2250 nM
GI50 (EKVX NSCLC): 1180 nM
TGI (EKVX NSCLC): 2640 nM
GI50 (MCF7 breast): 208 nM
TGI (MCF7 breast): 547 nM
GI50 (CAKI-1 renal): 582 nM
TGI (CAKI-1 renal): 1890 nM
GI50 (HCT-116 colon): 234 nM
TGI (HCT-116 colon): 624 nM
GI50 (NCI-H23 lung): 391 nM
TGI (NCI-H23 lung): 1480 nM
GI50 (NCI-H226 lung): 662 nM
TGI (NCI-H226 lung): 1640 nM
GI50 (COLO 205 colon): 239 nM
TGI (COLO 205 colon): 769 nM
GI50 (OVCAR-3 ovarian): 285 nM
TGI (OVCAR-3 ovarian): 812 nM
GI50 (U251 CNS): 255 nM
TGI (U251 CNS): 716 nM
GI50 (SF-268 CNS): 424 nM
TGI (SF-268 CNS): 1590 nM
GI50 (SF-295 CNS): 1510 nM
TGI (SF-295 CNS): 3080 nM
GI50 (UO-31 renal): 975 nM
TGI (UO-31 renal): 2250 nM
GI50 (ACHN renal): 1190 nM
TGI (ACHN renal): 2450 nM
GI50 (UACC-257 melanoma): 244 nM
TGI (UACC-257 melanoma): 1010 nM
GI50 (HT29 colon): 1420 nM
TGI (HT29 colon): 3440 nM
GI50 (HCC-2998 colon): 1240 nM
TGI (HCC-2998 colon): 2500 nM
GI50 (CCRF-CEM leukemia): 136 nM
TGI (CCRF-CEM leukemia): 428 nM
GI50 (SN12C renal): 679 nM
TGI (SN12C renal): 1980 nM
GI50 (KM12 colon): 1690 nM
TGI (KM12 colon): 3120 nM
GI50 (SW-620 colon): 227 nM
TGI (SW-620 colon): 740 nM
GI50 (TK-10 renal): 329 nM
TGI (TK-10 renal): 1130 nM
GI50 (MDA-MB-231 breast): 323 nM
TGI (MDA-MB-231 breast): 1330 nM
GI50 (DU-145 prostate): 1440 nM
TGI (DU-145 prostate): 2750 nM
